Calls of active or inactive are those of the source. No cut-off for these calls is given here.
What was measured:
[1] = Antiproliferative activity against PTEN deficient human MDA468 cells after 3 days by MTS assay; type: functional, cell-based; conditions: MDA-MB-468, 72 h
[2] = test system: LNCaP; test: Antiproliferative activity against PTEN deficient human LNCAP cells after 3 days by MTS assay; type: functional, cell-based; conditions: 72 h
[3] = target: Serine/threonine-protein kinase mTOR (Homo sapiens, UniProt P42345); test: Inhibition of human FLAG-tagged mTOR expressed in HEK293 cells after 2 hrs by DELFIA; type: cell-based
[4] = Selectivity ratio, IC50 for PI3Kalpha to IC50 for human FLAG-tagged mTOR
[5] = Metabolic stability in human microsomes assessed as half life; type: ADME, Microsome
[6] = Solubility at pH 3; type: physicochemical; conditions: buffer
[7] = target: Phosphatidylinositol 4,5-bisphosphate 3-kinase catalytic subunit alpha isoform (Homo sapiens, UniProt P42336); test: Binding affinity to PI3Kalpha by fluorescence polarization assay
Sequence of Phosphatidylinositol 4,5-bisphosphate 3-kinase catalytic subunit alpha isoform (P42336 whole entry, canonical isoform): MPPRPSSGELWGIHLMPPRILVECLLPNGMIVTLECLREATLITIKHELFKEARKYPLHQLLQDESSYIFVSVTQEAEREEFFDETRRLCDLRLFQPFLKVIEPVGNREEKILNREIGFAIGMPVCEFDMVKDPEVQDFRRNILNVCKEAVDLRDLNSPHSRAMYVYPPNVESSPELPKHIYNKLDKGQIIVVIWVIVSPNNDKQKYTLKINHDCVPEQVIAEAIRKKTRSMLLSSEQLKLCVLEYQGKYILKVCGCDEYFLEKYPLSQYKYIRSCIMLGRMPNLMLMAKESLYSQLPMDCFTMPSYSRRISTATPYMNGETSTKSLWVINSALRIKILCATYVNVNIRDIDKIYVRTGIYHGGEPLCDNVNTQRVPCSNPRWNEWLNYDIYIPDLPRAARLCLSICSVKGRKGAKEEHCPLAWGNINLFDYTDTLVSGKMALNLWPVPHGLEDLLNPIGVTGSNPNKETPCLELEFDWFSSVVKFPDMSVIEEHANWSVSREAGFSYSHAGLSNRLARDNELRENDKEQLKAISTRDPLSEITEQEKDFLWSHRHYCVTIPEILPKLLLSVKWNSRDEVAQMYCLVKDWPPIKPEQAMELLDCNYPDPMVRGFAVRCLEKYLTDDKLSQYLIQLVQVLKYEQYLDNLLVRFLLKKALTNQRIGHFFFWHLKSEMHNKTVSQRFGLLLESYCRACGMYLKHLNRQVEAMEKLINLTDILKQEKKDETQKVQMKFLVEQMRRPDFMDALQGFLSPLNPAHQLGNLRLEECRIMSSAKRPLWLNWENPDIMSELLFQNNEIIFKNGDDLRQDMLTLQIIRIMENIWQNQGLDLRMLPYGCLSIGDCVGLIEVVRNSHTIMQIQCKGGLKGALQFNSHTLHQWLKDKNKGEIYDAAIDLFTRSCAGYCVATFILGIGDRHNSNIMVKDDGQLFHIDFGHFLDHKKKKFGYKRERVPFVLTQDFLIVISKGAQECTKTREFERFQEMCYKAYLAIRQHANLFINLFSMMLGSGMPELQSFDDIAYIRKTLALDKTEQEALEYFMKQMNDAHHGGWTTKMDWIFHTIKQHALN

[8] = target: Phosphatidylinositol 4,5-bisphosphate 3-kinase catalytic subunit beta isoform (Homo sapiens, UniProt P42338); test: Inhibition of PI3Kbeta
Sequence of Phosphatidylinositol 4,5-bisphosphate 3-kinase catalytic subunit beta isoform (P42338 whole entry, canonical isoform): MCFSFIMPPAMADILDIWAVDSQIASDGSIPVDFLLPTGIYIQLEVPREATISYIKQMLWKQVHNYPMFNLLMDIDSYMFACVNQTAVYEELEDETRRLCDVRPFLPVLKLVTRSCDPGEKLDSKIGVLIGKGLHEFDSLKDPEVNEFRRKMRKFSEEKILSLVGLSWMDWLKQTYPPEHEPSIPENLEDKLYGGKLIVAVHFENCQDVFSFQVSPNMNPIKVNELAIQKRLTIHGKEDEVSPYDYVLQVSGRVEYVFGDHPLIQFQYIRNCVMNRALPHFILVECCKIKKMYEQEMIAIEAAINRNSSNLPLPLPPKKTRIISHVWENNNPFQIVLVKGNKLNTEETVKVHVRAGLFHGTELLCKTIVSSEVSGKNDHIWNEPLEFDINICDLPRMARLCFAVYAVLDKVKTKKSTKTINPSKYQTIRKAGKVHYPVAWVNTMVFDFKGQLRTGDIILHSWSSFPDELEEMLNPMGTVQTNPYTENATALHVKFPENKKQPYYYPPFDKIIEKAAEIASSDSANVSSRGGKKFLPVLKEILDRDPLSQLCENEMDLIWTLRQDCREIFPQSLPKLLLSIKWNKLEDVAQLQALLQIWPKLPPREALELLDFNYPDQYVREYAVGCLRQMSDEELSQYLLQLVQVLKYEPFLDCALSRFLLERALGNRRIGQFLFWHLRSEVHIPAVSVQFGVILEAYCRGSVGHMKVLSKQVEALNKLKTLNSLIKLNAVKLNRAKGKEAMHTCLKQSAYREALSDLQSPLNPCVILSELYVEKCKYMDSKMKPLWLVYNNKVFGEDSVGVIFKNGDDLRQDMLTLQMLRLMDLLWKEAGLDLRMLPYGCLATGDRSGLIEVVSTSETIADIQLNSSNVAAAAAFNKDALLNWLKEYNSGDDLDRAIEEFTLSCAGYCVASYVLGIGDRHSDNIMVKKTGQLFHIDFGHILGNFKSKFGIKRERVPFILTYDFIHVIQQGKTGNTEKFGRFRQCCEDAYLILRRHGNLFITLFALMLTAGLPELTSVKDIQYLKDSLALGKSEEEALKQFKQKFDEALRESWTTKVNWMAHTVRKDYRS

[9] = target: Phosphatidylinositol 4,5-bisphosphate 3-kinase catalytic subunit gamma isoform (Homo sapiens, UniProt P48736); test: Inhibition of PI3Kgamma
Sequence of Phosphatidylinositol 4,5-bisphosphate 3-kinase catalytic subunit gamma isoform (P48736 whole entry, canonical isoform): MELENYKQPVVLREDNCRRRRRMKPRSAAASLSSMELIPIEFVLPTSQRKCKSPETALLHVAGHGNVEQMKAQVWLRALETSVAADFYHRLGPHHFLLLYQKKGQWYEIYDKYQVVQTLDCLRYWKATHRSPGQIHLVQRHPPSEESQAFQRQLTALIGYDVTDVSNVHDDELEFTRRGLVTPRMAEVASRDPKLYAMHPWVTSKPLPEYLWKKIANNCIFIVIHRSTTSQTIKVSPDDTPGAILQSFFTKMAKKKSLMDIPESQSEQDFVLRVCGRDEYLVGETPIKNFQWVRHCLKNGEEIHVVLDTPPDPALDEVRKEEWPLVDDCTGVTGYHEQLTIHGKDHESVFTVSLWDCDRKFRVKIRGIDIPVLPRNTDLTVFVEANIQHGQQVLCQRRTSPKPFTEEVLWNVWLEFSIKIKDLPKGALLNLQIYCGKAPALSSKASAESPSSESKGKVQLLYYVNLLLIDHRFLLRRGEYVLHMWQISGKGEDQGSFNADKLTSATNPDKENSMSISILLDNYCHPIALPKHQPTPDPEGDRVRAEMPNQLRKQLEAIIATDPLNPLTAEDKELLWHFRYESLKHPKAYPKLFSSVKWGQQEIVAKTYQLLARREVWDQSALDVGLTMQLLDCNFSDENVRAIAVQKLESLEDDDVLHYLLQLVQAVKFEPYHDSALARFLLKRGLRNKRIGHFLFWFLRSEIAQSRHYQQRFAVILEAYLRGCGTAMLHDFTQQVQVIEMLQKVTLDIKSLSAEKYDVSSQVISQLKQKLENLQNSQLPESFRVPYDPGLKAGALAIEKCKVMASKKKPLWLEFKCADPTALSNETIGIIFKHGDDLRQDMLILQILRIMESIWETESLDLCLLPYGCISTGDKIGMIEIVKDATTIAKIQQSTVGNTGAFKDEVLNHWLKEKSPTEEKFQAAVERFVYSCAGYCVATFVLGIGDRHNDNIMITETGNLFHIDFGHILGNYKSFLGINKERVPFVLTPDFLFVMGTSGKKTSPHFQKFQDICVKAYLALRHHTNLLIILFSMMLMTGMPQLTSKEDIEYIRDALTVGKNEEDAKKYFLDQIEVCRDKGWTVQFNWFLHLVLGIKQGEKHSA

[10] = Clearance in nude mouse at 5 mg/kg, iv; type: ADME, organism-based; design: dose 5 mg/kg, route intravenous; conditions: in vivo
[11] = Volume of distribution at steady state in nude mouse at 5 mg/kg, iv; type: ADME, organism-based; design: dose 5 mg/kg, route intravenous; conditions: in vivo, read-out: Vdss
[12] = Half life in nude mouse at 5 mg/kg, iv; type: ADME, organism-based; design: dose 5 mg/kg, route intravenous; conditions: in vivo
[13] = Plasma concentration in nude mouse at 25 mg/kg, iv after 8 hrs; type: ADME, organism-based; design: dose 25 mg/kg, route intravenous
[14] = AUC in nude mouse at 5 mg/kg, iv; type: ADME, organism-based; design: dose 5 mg/kg, route intravenous; conditions: plasma
[15] = test system: MDA-MB-361; test: Antitumor activity against human MDA-MB-361 cells xenografted in nude mouse assessed as inhibition of tumor growth at 20 mg/kg, iv every 5 days for 21 days; type: functional, organism-based; design: dose 20 mg/kg
[16] = Metabolic stability in mouse microsomes assessed as half life; type: ADME, Microsome
[17] = test system: Mus musculus; test: Inhibition of TORC1 in human MDA-MB-361 cells xenografted nude mouse assessed as p70-S6K level at 25 mg/kg, iv; type: functional, organism-based; design: dose 25 mg/kg
[18] = test system: Mus musculus; test: Inhibition of TORC2 in human MDA-MB-361 cells xenografted nude mouse assessed as p-AKT S473 level at 25 mg/kg, iv; type: functional, organism-based; design: dose 25 mg/kg
[19] = test system: Mus musculus; test: Antitumor activity against human MDA-MB-361 cells xenografted in nude mouse assessed as inhibition of tumor growth at 10 to 25 mg/kg, iv administered daily; type: functional, organism-based
[20] = test system: Mus musculus; test: Toxicity in nude mouse xenografted with human MDA-MB-361 cells at 10 to 25 mg/kg, iv administered daily; type: organism-based; design: dose 10-25 mg/kg, route intravenous; conditions: in vivo
[21] = test system: MDA-MB-361; test: Inhibition of mTORC2 in human MDA-MB-361 cells assessed as phosphorylated AKT S473 level at 25 nM

CCn1ncc2c(N3CC4CCC(C3)O4)nc(-c3ccc(NC(=O)Nc4ccc(N5CCOCC5)nc4)cc3)nc21
IC50 [1]: 8 nM | IC50 [2]: 0.8 nM | IC50 [3]: 0.3 nM | Ratio IC50 [4]: 7300

CCn1ncc2c(N3CC4CCC(C3)O4)nc(-c3ccc(NC(=O)Nc4ccc(C(=O)NN5CCCC5)cc4)cc3)nc21
IC50 [1]: 4 nM | IC50 [2]: < 0.7 nM | IC50 [3]: 0.2 nM | Ratio IC50 [4]: 586 | half-life [5]: > 30 min

CCn1ncc2c(N3CC4CCC(C3)O4)nc(-c3ccc(NC(=O)Nc4ccc(NC)nc4)cc3)nc21
IC50 [1]: 200 nM | IC50 [2]: 17 nM | Ratio IC50 [4]: 302

CCn1ncc2c(N3CC4CCC(C3)O4)nc(-c3ccc(NC(=O)Nc4ccc(N5CCN(C)CC5)nc4)cc3)nc21
IC50 [1]: 0.8 nM | IC50 [2]: < 0.7 nM | IC50 [3]: 0.7 nM | Ratio IC50 [4]: 275 | solubility [6]: > 100 µg/mL | half-life [5]: > 30 min

CCn1ncc2c(N3CC4CCC(C3)O4)nc(-c3ccc(NC(=O)Nc4ccc(CCO)cc4)cc3)nc21
IC50 [1]: < 0.7 nM | IC50 [2]: < 0.7 nM | IC50 [3]: 0.1 nM | Ratio IC50 [4]: 570 | half-life [5]: 10 min

CCn1ncc2c(N3CC4CCC(C3)O4)nc(-c3ccc(NC(=O)Nc4ccc(N5CCCC5)cc4)cc3)nc21
IC50 [1]: 120 nM | IC50 [2]: 55 nM | Ratio IC50 [4]: 243 | half-life [5]: 5 min

CCn1ncc2c(N3CC4CCC(C3)O4)nc(-c3ccc(NC(=O)Nc4ccc(CN(C)C)cc4)cc3)nc21
IC50 [1]: 30 nM | IC50 [2]: 7 nM | IC50 [3]: 1.1 nM | IC50 [7]: 263 nM | Ratio IC50 [4]: 239 | half-life [5]: 29 min

CCn1ncc2c(N3CC4CCC(C3)O4)nc(-c3ccc(NC(=O)Nc4ccc(N5CCOCC5)cc4)cc3)nc21
IC50 [1]: < 0.7 nM | IC50 [2]: < 0.7 nM | IC50 [3]: 0.2 nM | Ratio IC50 [4]: 972 | half-life [5]: 6 min

CCn1ncc2c(N3CC4CCC(C3)O4)nc(-c3ccc(NC(=O)Nc4ccc(N(C)CCN(C)C)cc4)cc3)nc21
IC50 [1]: 0.8 nM | IC50 [2]: 0.8 nM | IC50 [3]: 0.9 nM | IC50 [7]: 256 nM | Ratio IC50 [4]: 295 | half-life [5]: 14 min

CN(C)CCn1ncc2c(N3CC4CCC(C3)O4)nc(-c3ccc(NC(=O)Nc4cccnc4)cc3)nc21
IC50 [1]: 220 nM | IC50 [2]: 50 nM | Ratio IC50 [4]: 89

O=C(Nc1ccc(-c2nc(N3CC4CCC(C3)O4)c3cnn(CC(F)(F)F)c3n2)cc1)Nc1ccc(N2CCNCC2)cc1
IC50 [1]: 1 nM | IC50 [2]: < 0.8 nM | IC50 [3]: 0.2 nM | IC50 [7]: 76 nM | Ratio IC50 [4]: 318

CCn1ncc2c(N3CC4CCC(C3)O4)nc(-c3ccc(NC(=O)Nc4ccc(CN)cc4)cc3)nc21
IC50 [1]: < 0.8 nM | IC50 [2]: < 0.8 nM | IC50 [3]: 0.2 nM | IC50 [7]: 21 nM | Ratio IC50 [4]: 95 | half-life [5]: > 30 min

CCn1ncc2c(N3CC4CCC(C3)O4)nc(-c3ccc(NC(=O)Nc4ccc(CO)cc4)cc3)nc21
IC50 [1]: < 0.7 nM | IC50 [2]: < 0.7 nM | IC50 [3]: 0.1 nM | Ratio IC50 [4]: 335 | half-life [5]: 11 min

CCn1ncc2c(N3CC4CCC(C3)O4)nc(-c3ccc(NC(=O)Nc4ccc(NCCN(C)C)cc4)cc3)nc21
IC50 [1]: 7 nM | IC50 [2]: 2.8 nM | IC50 [3]: 1.7 nM | IC50 [7]: 207 nM | Ratio IC50 [4]: 122 | half-life [5]: 14 min

CCn1ncc2c(N3CC4CCC(C3)O4)nc(-c3ccc(NC(=O)Nc4ccc(N(C)C)nc4)cc3)nc21
IC50 [1]: 80 nM | IC50 [2]: 6 nM | IC50 [7]: 282 nM | Ratio IC50 [4]: 282

CCn1ncc2c(N3CC4CCC(C3)O4)nc(-c3ccc(NC(=O)Nc4ccccc4)cc3)nc21
IC50 [1]: 12 nM | IC50 [2]: 0.8 nM | IC50 [7]: 66 nM | Ratio IC50 [4]: 212 | half-life [5]: 5 min

CCn1ncc2c(N3CC4CCC(C3)O4)nc(-c3ccc(NC(=O)Nc4ccc(C(=O)NN(C)C)cc4)cc3)nc21
IC50 [1]: < 0.7 nM | IC50 [2]: < 0.7 nM | IC50 [3]: 0.3 nM | Ratio IC50 [4]: 350 | half-life [5]: 23 min

CCn1ncc2c(N3CC4CCC(C3)O4)nc(-c3ccc(NC(=O)Nc4ccc(OCCN(C)C)cc4)cc3)nc21
IC50 [1]: 8 nM | IC50 [2]: < 0.7 nM | IC50 [3]: 0.8 nM | IC50 [7]: 136 nM | Ratio IC50 [4]: 172 | half-life [5]: > 30 min

CCn1ncc2c(N3CC4CCC(C3)O4)nc(-c3ccc(NC(=O)Nc4cccnc4)cc3)nc21
IC50 [1]: 1.2 nM | IC50 [2]: < 0.8 nM | IC50 [3]: 0.1 nM | IC50 [7]: 148 nM | Ratio IC50 [4]: 1120 | half-life [5]: 4 min

CCn1ncc2c(N3CC4CCC(C3)O4)nc(-c3ccc(NC(=O)Nc4ccc(OCCN5CCOCC5)nc4)cc3)nc21
IC50 [1]: 0.8 nM | IC50 [2]: < 0.7 nM | IC50 [3]: 1 nM | Ratio IC50 [4]: 383 | solubility [6]: > 100 µg/mL

CCNC(=O)Nc1ccc(-c2nc(N3CC4CCC(C3)O4)c3cnn(CCN(C)C)c3n2)cc1
IC50 [1]: 1800 nM | IC50 [2]: 280 nM | Ratio IC50 [4]: 240

CCn1ncc2c(N3CC4CCC(C3)O4)nc(-c3ccc(NC(=O)NCCN(C)C)cc3)nc21
IC50 [1]: 1250 nM | IC50 [2]: 350 nM | IC50 [3]: 51 nM | Ratio IC50 [4]: 16

CCn1ncc2c(N3CC4CCC(C3)O4)nc(-c3ccc(NC(=O)Nc4ccc(N5CCN(C)CC5)cc4)cc3)nc21
IC50 [1]: < 0.7 nM | IC50 [2]: < 0.7 nM | IC50 [3]: 0.3 nM | IC50 [7]: 51 nM | Ratio IC50 [4]: 188 | half-life [5]: > 30 min

CCNC(=O)Nc1ccc(-c2nc(N3CC4CCC(C3)O4)c3cnn(CC)c3n2)cc1
IC50 [1]: 80 nM | IC50 [2]: 16 nM | IC50 [3]: 0.6 nM | Ratio IC50 [4]: 2230

CCn1ncc2c(N3CC4CCC(C3)O4)nc(-c3ccc(NC(=O)Nc4ccc(CN5CCN(C)CC5)cc4)cc3)nc21
IC50 [1]: 0.8 nM | IC50 [2]: < 0.8 nM | IC50 [3]: 0.7 nM | IC50 [7]: 320 nM | Ratio IC50 [4]: 451 | half-life [5]: > 30 min

CN1CCN(c2ccc(NC(=O)Nc3ccc(-c4nc(N5CC6CCC(C5)O6)c5cnn(CC(F)(F)F)c5n4)cc3)cc2)CC1
IC50 [1]: 1.5 nM | IC50 [2]: < 0.8 nM | IC50 [3]: 0.6 nM | IC50 [7]: 150 nM | Ratio IC50 [4]: 237 | half-life [5]: 24 min | IC50 [8]: > 10000 nM | IC50 [9]: > 10000 nM | clearance [10]: 7 mL/min/kg | Vd [11]: 1.2 L/kg | half-life [12]: 174 min | concentration at 8 h [13]: 2500 ng/mL | AUC [14]: 12500 ng·h/mL | Activity [15]: Active | half-life [16]: > 30 min | Activity [17]: Active | Activity [18]: Active | Activity [19]: Active | Activity [20]: Non-toxic | Activity [21]: Active

Source: ChEMBL document CHEMBL1156748, “Incorporation of water-solubilizing groups in pyrazolopyrimidine mTOR inhibitors: discovery of highly potent and selective analogs with improved human microsomal stability” (Bioorg Med Chem Lett, 2009)
